The record followed here is patent US10202391B2, “Chemical compounds” (AstraZeneca AB, priority 2015, dated 2019).

One assay deals with T1, ERK2 (Homo sapiens, UniProt P28482).
T1 construct: made in house
The assay is described as follows: ERK2 Rapidfire Mass Spectrometry Inhibition of Catalysis Assay. It counts as biochemical. To be noted: 1.2 nM ERK2, 16 μM Erktide, 120 μM ATP (measured Km), 15 minute pre-incubation; read-out: ERK2 Mass Spectrometry Enzyme IC50. The essentials: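 In-house MEK-activated ERK2 (1.2 nM) in 50 mM Tris pH 7.5, 10 mM MgCl2, 0.1 mM EGTA, 10 mM DTT, 0.01% CHAPS; 12-point dose range 10–0.0000125 μM, 1% DMSO. Reaction 20 min at room temperature, formic acid quench; Erktide and phospho-Erktide measured by RapidFire mass spectrometry to give IC50.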

The next assay deals with A549 cell line. The assay is described as follows: Combination cell growth inhibition (Sytox Green, Loewe synergy), A549. To be noted: Example 18 with selumetinib, 6x6 dosing matrix 0-10 μmol/L, 3 days, Loewe model, average of three or more experiments. It counts as cell-based, human. An excerpt: (§1) A549 is a human non small cell lung cancer line carrying an oncogenic mutation in the KRAS gene (G12S). H2122 is a human non small cell lung cancer line carrying an oncogenic mutation in the KRAS gene (G12C). H2009 is a human non small cell lung cancer line carrying an oncogenic mutation in the KRAS gene (G12A). Calu6 is a human non small cell lung cancer line carrying mutation in the KRAS ([…]) gene. All cell lines were obtained from the American Type Culture Collection.
(§2) All cell line were maintained at 37° C. and 5% CO2 in a humidified atmosphere and grown in RPMI-1640 growth media supplemented with 10% FBS and 2 mmol/L glutamine. […]
(§3) Cells were seeded in 384-well black, clear bottomed plates (Greiner Bio-One, Stonehouse, UK), cultured for 18-24 hours and treated with increasing concentrations of Example 18 and selumetinib (0-10 μmol/L) in a 6×6 dosing matrix. […] After 3 days of treatment, live cell number was determined using a Sytox Green endpoint as described previously (“Davies B R, Greenwood H, Dudley P, et al: Preclinical pharmacology of AZD5363, an inhibitor of AKT: Pharmacodynamics, antitumor activity, and correlation of monotherapy activity with genetic background. Mol Cancer Ther 11(4):873-87, 2012”). […] Cells were then permeabilised by the overnight addition of saponin (0.03% final concentration, diluted in TBS-EDTA buffer) and a total cell count measured. […]

Assay [1] deals with panel of cancer cell lines with KRAS mutations. The assay is described as follows: Cell growth inhibition, monotherapy, panel of KRAS mutant lines. To be noted: A549, H2122, H2009, Calu6; 3 days of treatment. It counts as cell-based, human.
Description: as §1, §2, §3

T1 sequence (P28482 whole entry): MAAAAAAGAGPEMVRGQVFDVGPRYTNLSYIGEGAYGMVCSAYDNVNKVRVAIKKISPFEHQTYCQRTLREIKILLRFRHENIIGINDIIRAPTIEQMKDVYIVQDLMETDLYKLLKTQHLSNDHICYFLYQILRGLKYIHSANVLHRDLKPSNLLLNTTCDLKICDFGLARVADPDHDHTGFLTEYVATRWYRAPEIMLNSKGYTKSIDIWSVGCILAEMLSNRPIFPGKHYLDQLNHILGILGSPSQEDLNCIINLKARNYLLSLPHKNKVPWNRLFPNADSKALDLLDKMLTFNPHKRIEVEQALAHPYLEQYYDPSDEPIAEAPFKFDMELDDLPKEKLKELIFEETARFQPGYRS

On to `COC[C@H]1Cn2cc(-c3nc(Nc4ccnn4C)ncc3C)nc2C(=O)N1Cc1ccc(F)c(F)c1` [Example 18, (R)-7-(3,4-Difluorobenzyl)-6-(methoxymethyl)-2-(5-methyl-2-((1-methyl-1H-pyrazol-5-yl)amino)pyrimidin-4-yl)-6,7-dihydroimidazo[1,2-a]pyrazin-8(5H)-one], for which, at ERK2, the IC50 stood at 0.6 nM. The Synergy score in the assay with A549 cell line turned out to be 25. In assay [1], the “cell growth inhibition as monotherapy” value is recorded as “can inhibit the growth of a panel of cancer cell lines with KRAS mutations as a monotherapy”.

The term IC50 denotes the concentration that gives 50% inhibition.
